The values below come from patent publication US20170000749A1, “Methods for Treating Cognitive Disorders Using Inhibitors of Histone Deacetylase” (Forum Pharmaceuticals, Inc., priority 2008, published 2017).

What is called IC50 is the concentration needed to halve the response being measured.

The assay addresses one or more of HDAC-1, HDAC-2, HDAC-3, HDAC-4, HDAC-5, HDAC-6, HDAC-7, HDAC-8, HDAC-9, HDAC-10 and HDAC-11. Kind of assay: Inhibition of Histone Deacetylase Enzymatic Activity (Boc-Lys(Ac)-AMC substrate, Fluor-de-Lys developer). The format is biochemical. Conditions: read-out: HDAC Inhibition (IC50 μM) HDAC Enzyme. As to the method:
The following protocol is used to assay the compounds of the disclosure.
The mixture is pre-incubated for 5 minutes at room temperature. The reaction is started by bringing the temperature to 37° C. and adding 16 μl substrate. Total reaction volume is 50 μl.
In the Tables 8, 9 and 10, A≦0.05 μM; 0.05 μM<B≦0.1 μM; 0.1 μM<C≦1 μM; and 1 μM<D≦10 μM.

Where two headings read alike, the source gives them in different places. Where only a bound is given, the exact number is not on record here.

As to `O=C(NO)c1ccc(OCCN2C(=O)c3ccccc3Oc3ccccc32)cc1Cl`, the 50% inhibitory concentration (IC50) (Table 10) fell in the range of 1 to 10 µM.

In the case of `O=C(NO)c1ccc(OCCN2C(=O)c3ccccc3Oc3ccccc32)cc1F`, the IC50 (Table 10) was 0.05 to 0.1 µM.

Regarding `O=C(C=C1c2ccccc2C=Cc2ccccc21)NO`, the IC50 (Table 10) was in the range of 0.1 to 1 µM.

In the case of `O=C(C=C1c2ccccc2CCc2ccccc21)NO`, the IC50 (Table 10) lay within 1 to 10 µM.

Turning to `O=C(NO)c1cnc(NC2c3ccccc3CCc3ccccc32)nc1`, under “Table 10”, the IC50 is less than 0.05 µM.

As to `O=C(NO)c1cn2c(n1)sc1ccccc12`, the half-maximal inhibitory concentration (IC50) (Table 10) fell in the range of 0.1 to 1 µM.

Take `O=C(NO)c1ccc(COC2c3ccccc3CCc3ccccc32)cc1`: the IC50 (Table 10) lay in the range of 0.1 to 1 µM.

As for `O=C(NO)c1cccc(COC2c3ccccc3CCc3ccccc32)c1`, where the note is “Table 10”, the IC50 is 0.1 to 1 µM.

With `O=C(NO)c1cccc(CNC2c3ccccc3CCc3ccccc32)c1`, for the setting “Table 10”, the IC50 is 0.1 to 1 µM.

For the compound `O=C(NO)c1cnc(N2C[C@H]3C[C@@]3(c3cccc(C(F)(F)F)c3)C2)nc1`, the IC50 (Table 10) was in the range of 0.1 to 1 µM.

Regarding `O=C(NO)c1cnc(N2C[C@H]3C[C@@]3(c3ccc(C(F)(F)F)cc3)C2)nc1`, for the setting “Table 10”, the concentration for half-maximal inhibition (IC50) was in the range of 0.1 to 1 µM.

For the compound `CN1CCN(C2=Nc3cc(C(=O)NO)ccc3Oc3ccccc32)CC1`, the IC50 (Table 8) lay in the range of 0.1 to 1 µM.

For the compound `O=C(NO)c1cnc(N2C[C@H]3C[C@@]3(c3ccc(Cl)c(Cl)c3)C2)nc1` [2-((1R,5S)-1-(3,4-dichlorophenyl)-3-azabicyclo[3.1.0]hexan-3-yl)-N-hydroxypyrimidine-5-carboxamide], where the note is “Table 10”, the IC50 fell in the range of 0.1 to 1 µM.

Regarding `O=C(NO)c1cnc(N2C[C@@H]3C[C@]3(c3ccc(Cl)c(Cl)c3)C2)nc1` [2-((1S,5R)-1-(3,4-dichlorophenyl)-3-azabicyclo[3.1.0]hexan-3-yl)-N-hydroxypyrimidine-5-carboxamide], where the note is “Table 10”, the 50% inhibitory concentration (IC50) lay in the range of 0.1 to 1 µM.

Turning to `O=C(NO)c1cnc(NC(c2ccc(F)cc2)c2ccc(F)cc2)nc1` [2-(bis(4-fluorophenyl)methylamino)-N-hydroxypyrimidine-5-carboxamide], the concentration for half-maximal inhibition (IC50) (Table 10) was less than 0.05 µM.

On to `O=C(NO)c1cccc(CN2c3ccccc3Sc3ccccc32)c1` [3-((10H-phenothiazin-10-yl)methyl)-N-hydroxybenzamide], for which the IC50 (Table 10) is 0.1 to 1 µM.

For `O=C(NO)c1cccc(CN2c3ccccc3Oc3ccccc32)c1` [3-((10H-phenoxazin-10-yl)methyl)-N-hydroxybenzamide], the IC50 (Table 10) is 1 to 10 µM.

`O=C(NO)c1cccc(CN(c2ccccc2)c2ccccc2)c1` [3-((diphenylamino)methyl)-N-hydroxybenzamide]: the half-maximal inhibitory concentration (IC50) (Table 10) is 1 to 10 µM.

As to `O=C(CCCN1C(=O)c2cccnc2N(C2CC2)c2ccccc21)NO` [4-(11-cyclopropyl-5-oxo-5H-benzo[b]pyrido[2,3-e][1,4]diazepin-6(11H)-yl)-N-hydroxybutanamide], the IC50 (Table 10) is 1 to 10 µM.

For `O=C(NO)c1ccc(Cn2c3c(c4ccccc42)CCCCCC3)cc1` [4-((6,7,8,9,10,11-hexahydro-5H-cycloocta[b]indol-5-yl)methyl)-N-hydroxybenzamide], the half-maximal inhibitory concentration (IC50) (Table 10) lay within 0.1 to 1 µM.

On to `O=C(NO)c1ccc(CNC2c3ccccc3COc3ccccc32)cc1` (stereo not shown) [4-((6,11-dihydrodibenzo[b,e]oxepin-11-ylamino)methyl)-N-hydroxybenzamide], for which, under “Table 10”, the IC50 is 0.1 to 1 µM.

For `O=C(NO)c1ccc(CN2c3ccccc3CCc3ccccc32)cc1` [4-((10,11-dihydro-5H-dibenzo[b,f]azepin-5-yl)methyl)-N-hydroxybenzamide], the IC50 (Table 10) was less than 0.05 µM.

As for `O=C(NO)c1ccc(CNC(c2ccccc2)c2ccccc2)cc1` [4-((benzhydrylamino)methyl)-N-hydroxybenzamide], the half-maximal inhibitory concentration (IC50) (Table 10) was less than 0.05 µM.

For `O=C(NO)c1ccc(CN(c2ccccc2)c2ccccc2)cc1` [4-((diphenylamino)methyl)-N-hydroxybenzamide], the half-maximal inhibitory concentration (IC50) (Table 10) is 0.1 to 1 µM.

For the compound `O=C(NO)c1ccc(CN2Cc3ccccc3Oc3ccccc32)cc1` [4-(dibenzo[b,f][1,4]oxazepin-10(11H)-ylmethyl)-N-hydroxybenzamide], the 50% inhibitory concentration (IC50) (Table 10) was less than 0.05 µM.

As to `O=C(NO)c1cnc(N2CCC[C@H]2c2nc3ccccc3[nH]2)nc1` [(S)-2-(2-(1H-benzo[d]imidazol-2-yl)pyrrolidin-1-yl)-N-hydroxypyrimidine-5-carboxamide], the half-inhibitory concentration (IC50) (Table 10) lay in the range of 0.1 to 1 µM.

Consider `O=C(CN1c2ccccc2C=Cc2ccccc21)NO` [(Z)-2-(5H-dibenzo[b,f]azepin-5-yl)-N-hydroxyacetamide], for which the half-maximal inhibitory concentration (IC50) (Table 10) lay within 1 to 10 µM.

Consider `O=C(NO)c1cccc(CN2c3ccccc3C=Cc3ccccc32)c1` [(Z)-3-((5H-dibenzo[b,f]azepin-5-yl)methyl)-N-hydroxybenzamide], for which the 50% inhibitory concentration (IC50) (Table 10) fell in the range of 0.1 to 1 µM.

In the case of `CN(O)C(=O)c1ccc(C2=Nc3ccccc3N(C3CC3)c3ccccc32)cc1` [(Z)-4-(5-cyclopropyl-5H-dibenzo[b,e][1,4]diazepin-11-yl)-N-hydroxy-N-methylbenzamide], the IC50 (Table 8) lay in the range of 1 to 10 µM.

As for `O=C1CN=C(c2ccc(C(=O)NO)cc2)c2cc(Br)sc2N1` [(Z)-4-(7-bromo-2-oxo-2,3-dihydro-1H-thieno[2,3-e][1,4]diazepin-5-yl)-N-hydroxybenzamide], for the setting “Table 10”, the IC50 fell in the range of 0.1 to 1 µM.

As for `O=C(NO)c1ccc(C2=Nc3ccccc3N(CC3CC3)c3ncccc32)cc1` [(Z)-4-(11-(cyclopropylmethyl)-11H-benzo[b]pyrido[2,3-e][1,4]diazepin-5-yl)-N-hydroxybenzamide], under “Table 8”, the half-inhibitory concentration (IC50) lay within 1 to 10 µM.

On to `O=C(NO)c1ccc(C2=Nc3ccccc3Sc3ccccc32)cc1` [(Z)-4-(dibenzo[b,f][1,4]thiazepin-11-yl)-N-hydroxybenzamide], for which the half-inhibitory concentration (IC50) (Table 8) was 0.1 to 1 µM.

As for `O=C(NO)c1ccc(C2=Nc3ccccc3N(CCN3CCOCC3)c3ccccc32)cc1` [(Z)-N-hydroxy-4-(5-(2-morpholinoethyl)-5H-dibenzo[b,e][1,4]diazepin-11-yl)benzamide], for the setting “Table 8”, the IC50 was 0.1 to 1 µM.

On to `O=C(NO)c1ccc2c(c1)N=C(c1ccncc1)c1ccccc1O2` [(Z)-N-hydroxy-11-(pyridin-4-yl)dibenzo[b,f][1,4]oxazepine-8-carboxamide], for which the half-maximal inhibitory concentration (IC50) (Table 8) lay within 0.1 to 1 µM.

`O=C(NO)c1cnc(N2C[C@H]3C[C@@]3(c3ccccc3)C2)nc1` [N-hydroxy-2-((1R,5S)-1-phenyl-3-azabicyclo[3.1.0]hexan-3-yl)pyrimidine-5-carboxamide]: the 50% inhibitory concentration (IC50) (Table 10) is 0.1 to 1 µM.

As to `CN1CCc2[nH]c3ccc(C(=O)NO)cc3c2C1` [N-hydroxy-2-methyl-2,3,4,5-tetrahydro-1H-pyrido[4,3-b]indole-8-carboxamide], the IC50 (Table 10) lay in the range of 1 to 10 µM.

Consider `O=C(NO)c1ccc(Cn2c(-c3ccccc3)cc3ccccc32)cc1` [N-hydroxy-4-((2-phenyl-1H-indol-1-yl)methyl)benzamide], for which the half-maximal inhibitory concentration (IC50) (Table 10) lay in the range of 0.1 to 1 µM.

As to `O=C(NO)c1cc2c(cn1)[nH]c1ccccc12` [N-hydroxy-9H-pyrido[3,4-b]indole-3-carboxamide], the IC50 (Table 10) is 1 to 10 µM.

For the compound `O=CN(O)CCCCCCN1C(=O)c2ccccc2Oc2ccccc21` [N-hydroxy-N-(6-(11-oxodibenzo[b,f][1,4]oxazepin-10(11H)-yl)hexyl)formamide], for the setting “Table 10”, the IC50 was less than 0.05 µM.

Regarding “(Z)-N-(5H-dibenzo[b,f]azepin-5-yl)methyl)benzyl)-N-hydroxyformamide”, for the setting “Table 10”, the IC50 is 0.1 to 1 µM.
